Values after ≈ are worked out from the molar mass of the structure shown. Positions of bridges follow the written chain, without caps; N, C: chain ends. Non-standard residues stand in square brackets, D forms with d. Residues, ends and D or L forms follow the SMILES beside them. Chains are numbered I, II in the order given. βAla = NCCC(=O)O
Key:
[1] = system: Klebsiella pneumoniae ATCC 10031; assay: MIC by broth microdilution, K. pneumoniae reference strain; type: cell-based
Protocol: (§1) Determination of MIC. MICs were determined in MHB by the broth microdilution methodology, according to CLSI procedure (formerly NCCLS, Ref. 11) by using final bacterial inocula of 1-5×10^5 CFU/mL. Assays were performed in sterile 96-well microtiter plates with round bottom wells (Corning Costar). Plates were incubated at 37° C. and read after 20-24 h. MIC was defined as the lowest drug concentration causing complete suppression of visible bacterial growth. All compounds were dissolved in (5% v/v DMSO).
(§2) These peptides were synthesized individually, in order to assay the activity of each sequence.

[2] = system: Staphylococcus aureus ATCC 25923
Protocol: as §1, §2

[3] = system: Pseudomonas aeruginosa ATCC 27853; assay: MIC by broth microdilution, P. aeruginosa reference strain; type: cell-based
Protocol: as §1, §2

E. coli ATCC 25922 = assay: MIC by broth microdilution, E. coli reference strain; type: cell-based, Escherichia coli
Protocol: as §1
All natural aminoacids have been divided into three groups based on their chemical-physical properties. A total amount of 27 minilibraries, each one containing six peptide in equimolar amounts, were obtained and assayed against E. coli ATCC 25922 as reference strain. MIC (Minimum Inhibitory Concentration) is defined as the lowest concentration inhibiting 100% of visible growth.

whole blood = type: cell-based
Protocol: Whole blood was collected in a sterile tube with a 4% w/v sodium citrate solution (in a 1:10 ratio sodium citrate:whole blood) and conserved in ice. Serial dilutions of ID24 (1 mg/mL to 62.5 ug/mL) were added to whole blood in a ratio 1:1 or 1:10. The haemolytic potential was expressed relative to saponine, added in the same ratio, considered as 100% haemolysis. The negative control was whole blood in physiologic solution, which gave minimal lysis. 100 uL aliquots of each suspension were added in sterile 96-well microtiter plates (Nunc) in triplicate. The plates were incubated at 37° C. for 30 minutes.
Subsequently, the suspension were pelletted by centrifugation at 1000 g for 10 minutes at 4° C. One hundred microliters of supernatant from each well was transferred accordingly to a new 96-well microtiter plate, and the amount of haemoglobin released into the supernatant was determined by reading the absorbance at 560 nm.
In Table 8, haemolysis percentages of different amounts of ID24 in a 1:1 ratio with whole blood are listed, while in Table 9 haemolysis percentages of different amounts of ID24 in a 1:10 ratio with whole blood are reported. The amount of haemoglobin released into the supernatant was determined by reading the absorbance at 560 nm.

Proteus mirabilis = type: cell-based
Protocol: as §1
(§3) These compounds were tested against a large panel of Gram-negative clinical isolates and the relative MIC values were reported in Table 5 (parts 1-3)

Pseudomonas aeruginosa = type: cell-based
Protocol: as §1, §3

Serratia marcescens = type: cell-based
Protocol: as §1, §3

Escherichia coli = type: cell-based
Protocol: as §1, §3

[4] = system: Stenotrophomonas maltophilia; type: cell-based
Protocol: as §1, §3

Klebsiella oxytoca = type: cell-based
Protocol: as §1, §3

Enterobacter cloacae = type: cell-based
Protocol: as §1, §3

Acinetobacter iwoffi = type: cell-based
Protocol: as §1, §3

Acinetobacter baumannii = type: cell-based
Protocol: as §1, §3

Klebsiella pneumoniae = type: cell-based
Protocol: as §1, §3

Shigella = assay: MIC vs clinical isolates, Shigella; type: cell-based; details: Shigella strain ND024108
Protocol: as §1, §3

Row | Compound | MIC (ug/mL) K. pneumoniae ([1]; ATCC 10031) | MIC (ug/mL) S. aureus [2] | MIC (ug/mL) P. aeruginosa ([3]; ATCC 27853) | MIC (ug/mL) E. coli (E. coli ATCC 25922; ATCC 25922) | other results
1 | H-QLKIRVRLSA-OH [ID10, H-Q-L-KIRVRLSA-OH] | >512 µg/mL | >512 µg/mL | 128 µg/mL | 128 µg/mL | 
2 | H-QYKIRVRLSA-OH [ID13, H-Q-Y-KIRVRLSA-OH] | >512 µg/mL | >512 µg/mL | >512 µg/mL | >256 µg/mL | 
3 | saponine |  |  |  |  | Haemolysis % (whole blood): 100%; Haemolysis, % (whole blood): 100%
4 | H-QFKIRVRLSA-OH [ID8, H-Q-F-KIRVRLSA-OH] | >512 µg/mL | >512 µg/mL | 128 µg/mL | 128 µg/mL | 
5 | H-QVKIRVRLSA-OH [ID11, H-Q-V-KIRVRLSA-OH] | >512 µg/mL | >512 µg/mL | 256 µg/mL | 256 µg/mL | 
6 | H-GQWKIRVRLSA-OH [ID14, H-G-Q-W-KIRVRLSA-OH] | >512 µg/mL | >512 µg/mL | 64 µg/mL | 64 µg/mL | 
7 | H-QIKIRVRLSA-OH [ID9, H-Q-I-KIRVRLSA-OH] | 512 µg/mL | >512 µg/mL | >512 µg/mL | 512 µg/mL | 
8 | CC[C@H](C)[C@H](NC(=O)[C@H](CCCCN)NC(=O)[C@H](CCCCN)NC(=O)[C@@H](N)Cc1c[nH]c2ccccc12)C(=O)N[C@@H](CCCNC(=N)N)C(=O)N[C@H](C(=O)N[C@@H](CCCNC(=N)N)C(=O)N[C@@H](CC(C)C)C(=O)N[C@@H](CO)C(=O)N[C@@H](C)C(=O)NCCCC[C@H](NC(=O)[C@H](C)NC(=O)[C@H](CO)NC(=O)[C@H](CC(C)C)NC(=O)[C@H](CCCNC(=N)N)NC(=O)[C@@H](NC(=O)[C@H](CCCNC(=N)N)NC(=O)[C@@H](NC(=O)[C@H](CCCCN)NC(=O)[C@H](CCCCN)NC(=O)[C@@H](N)Cc1c[nH]c2ccccc12)[C@@H](C)CC)C(C)C)C(=O)NCCC(N)=O)C(C)C [ID18, (H-W-KKIRVRLSA)2-Lys-β-Ala-NH2] (I: H-WKKIRVRLSAK[βAla]-NH2 / II: H-WKKIRVRLSA; amide I:11-II:C) |  |  |  |  | MIC (ug/mL) K. pneumoniae ([1]; Table 4): 32 µg/mL (≈ 11.9 µM); MIC (ug/mL) P. aeruginosa ([3]; Table 4): 32 µg/mL (≈ 11.9 µM); MIC (Proteus mirabilis): >128 µg/mL; MIC Range (Proteus mirabilis): >128 µg/mL; MIC Range (Pseudomonas aeruginosa): 8 to 16 µg/mL; MIC (Serratia marcescens): >128 µg/mL; MIC Range (Escherichia coli): 2 to 32 µg/mL; MIC Range [4]: 8 to 32 µg/mL; MIC (Klebsiella oxytoca): 32 µg/mL (≈ 11.9 µM); MIC Range (Klebsiella oxytoca): 32 µg/mL (≈ 11.9 µM); MIC Range (Enterobacter cloacae): 4 to 32 µg/mL; MIC (Acinetobacter iwoffi): 16 µg/mL (≈ 5.94 µM); MIC Range (Acinetobacter baumannii): 8 to 16 µg/mL; MIC Range (Klebsiella pneumoniae): 4 to 16 µg/mL; MIC (Shigella): 4 µg/mL (≈ 1.49 µM); MIC (ug/mL) E. coli (E. coli ATCC 25922; Table 4): 4 µg/mL (≈ 1.49 µM)
9 | H-VKKIRVRLSA-OH [ID5, H-V-KKIRVRLSA-OH] | >512 µg/mL | 512 µg/mL | 512 µg/mL | 512 µg/mL | 
10 | H-WKKIRVRLSA-OH [ID6, H-W-KKIRVRLSA-OH] | 256 µg/mL | 512 µg/mL | 128 µg/mL | 64 to 128 µg/mL | 
11 | H-IKKIRVRLSA-OH [ID3, H-I-KKIRVRLSA-OH] | 512 µg/mL | 512 µg/mL | 256 µg/mL | 256 µg/mL | 
12 | H-LKKIRVRLSA-OH [ID4, H-L-KKIRVRLSA-OH] | 512 µg/mL | >512 µg/mL | 256 µg/mL | 256 µg/mL | 

— patent US8785399B2, “Antibacterial peptides” (Spiderbiotech S.R.A., priority 2008, dated 2014)
